Experimental data published in patent US11458213B2, “Prostate-specific membrane antigen targeted high-affinity agents for endoradiotherapy of prostate cancer” (THE JOHNS HOPKINS UNIVERSITY, priority 2016, dated 2022).

Columns and labels:
[1] = target: prostate-specific membrane antigen (PSMA) (Homo sapiens, UniProt Q04609); assay: Binding affinities of the representative agents (PSMA)
[2] = LogP octanol/water; assay type: physicochemical
[3] = system: PSMA+ PC3 PIP cells; assay: Cell binding, uptake and internalization in PSMA+ PC3 PIP cells; assay type: cell-based; conditions: for Cell surface / Cell uptake PSMA + PC3 PIP / Internalization (cell lysate): 4 h incubation, n = 3; for uptake in PSMA+ PC3 cells (in words): compared to ^177Lu-3
[4] = system: PSMA-negative PC3 flu cells; assay: Cell uptake in PSMA-negative PC3 flu cells; assay type: cell-based; conditions: 4 h incubation, n = 3
[5] = system: PSMA+ PC3 PIP cells; assay: Clonogenic assay in PSMA+ PC3 PIP cells; assay type: cell-based; conditions: 10 μCi dose
[6] = system: PSMA-PC3 flu cells; assay: Clonogenic assay in PSMA- PC3 flu cells; assay type: cell-based; conditions: 10 μCi dose
[7] = system: PSMA+ PC3 PIP tumor; assay: Treatment study (SPECT imaging and therapeutic effect) in tumor-bearing mice; assay type: in vivo
Protocol: A single dose of 3 mCi was injected via tail-vain injection in mice (n=10) bearing PSMA+ PC3 PIP tumor (size 3-5 mm). Saline was injected to another group of mice (n=10) for control study. Mice were monitored for body weight tumor size measure for two times per week. The control group of mice was euthanized after 4-8 weeks as the size of tumors over were >12 mm.

[8] = system: PSMA+ PC3 PIP tumor; assay: In vivo tissue biodistribution; conditions: for tissue biodistribution PC-3 Flu: PC-3 Flu tumor; for tissue biodistribution PC-3 PIP: PC-3 PIP tumor

Sequence of prostate-specific membrane antigen (PSMA) (Q04609 whole entry): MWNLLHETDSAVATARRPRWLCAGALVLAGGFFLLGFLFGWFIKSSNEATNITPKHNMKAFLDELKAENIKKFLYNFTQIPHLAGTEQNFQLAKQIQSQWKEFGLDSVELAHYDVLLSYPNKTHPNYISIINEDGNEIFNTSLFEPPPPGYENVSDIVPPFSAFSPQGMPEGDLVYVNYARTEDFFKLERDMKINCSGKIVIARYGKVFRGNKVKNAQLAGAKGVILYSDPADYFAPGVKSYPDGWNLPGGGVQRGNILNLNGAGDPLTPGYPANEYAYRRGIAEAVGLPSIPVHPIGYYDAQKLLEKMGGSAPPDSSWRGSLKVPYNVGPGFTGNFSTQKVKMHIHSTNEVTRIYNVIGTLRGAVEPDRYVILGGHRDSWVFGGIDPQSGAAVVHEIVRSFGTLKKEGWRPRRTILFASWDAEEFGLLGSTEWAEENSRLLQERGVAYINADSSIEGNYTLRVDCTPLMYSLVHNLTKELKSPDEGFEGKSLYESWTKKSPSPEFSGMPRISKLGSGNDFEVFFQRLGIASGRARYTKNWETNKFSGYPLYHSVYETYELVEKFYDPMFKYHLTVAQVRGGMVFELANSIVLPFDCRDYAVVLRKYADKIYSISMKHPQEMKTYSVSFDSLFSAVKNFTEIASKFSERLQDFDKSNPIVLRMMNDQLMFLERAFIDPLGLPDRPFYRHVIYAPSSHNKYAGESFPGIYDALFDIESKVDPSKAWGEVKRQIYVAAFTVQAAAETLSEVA

## O=C(O)CC[C@H](NC(=O)N[C@@H](CCCCN(Cc1ccc(Br)cc1)C(=O)CCCCNC(=S)Nc1ccc(CC2CN(CC(=O)O)CCN(CC(=O)O)CCN(CC(=O)O)CCN2CC(=O)O)cc1)C(=O)O)C(=O)O (stereo partly drawn) [Compound 1]
[1]
  IC50: 0.57 nM
  Ki: 1.15 nM
  binding affinity for PSMA (in words): higher binding affinity compared to 3
[2]
  LogPoct/water: −3.0

## O=C(O)CC[C@H](NC(=O)N[C@@H](CCCCN(Cc1ccc(Br)cc1)C(=O)CCCCNC(=O)CN1CCN(CC(=O)O)CCN(CC(=O)O)CCN(CC(=O)O)CC1)C(=O)O)C(=O)O [Compound 2]
[1]
  IC50: 0.64 nM
  Ki: 1.28 nM
  binding affinity for PSMA (in words): higher binding affinity compared to 3
[2]
  LogPoct/water: −3.53

## O=C(O)CC[C@H](NC(=O)N[C@@H](CCCCNC(=O)CCCCNC(=S)Nc1ccc(CC2CN(CC(=O)O)CCN(CC(=O)O)CCN(CC(=O)O)CCN2CC(=O)O)cc1)C(=O)O)C(=O)O (stereo partly drawn) [Compound 3]
[1]
  IC50: 2.16 nM
  Ki: 0.43 nM
[2]
  LogPoct/water: −3.2

## O=C([O-])CN1CCN(CC(=O)[O-])CCN(CC(=O)O)C(Cc2ccc(NC(=S)NCCCCC(=O)N(CCCC[C@H](NC(=O)N[C@@H](CCC(=O)O)C(=O)O)C(=O)O)Cc3ccc(Br)cc3)cc2)CN(CC(=O)[O-])CC1.[177Lu+3] (stereo partly drawn) [^177Lu-1]
[3]
  internalized activity compared to ^177Lu-3: ~2 fold
  Cell surface: 27.68 percent incubated dose per one million cells
  Cell uptake PSMA + PC3 PIP: 42.60 percent incubated dose per one million cells
  Internalization (cell lysate): 15.88 percent incubated dose per one million cells
  uptake in PSMA+ PC3 cells (in words): higher uptake in PSMA+ PC3 cells compared to ^177Lu-3
[4]
  Cell uptake PSMA − PC3 flu: 0.09 percent incubated dose per one million cells
[5]
  cell killing efficacy: about 100%
[6]
  toxicity for PSMA-PC3 flu cells (in words): no significant toxicity
[7]; mouse, in vivo
  remission of PSMA+ PC3 tumor bearing mice: about 50%
[7]; single dose of 3 mCi
  body weight during treatment (in words): regained after 2 weeks
  survival of mice in complete remission: more than five months
  therapeutic efficacy compared to the control group using saline (in words): decrease in tumor volume
[7]; single dose of 3 mCi via tail vein, n=10
  mice showing complete eradication of tumors: 50%
[7]; single dose of 3 mCi, n=10
  number of mice with complete remission of the disease: Five
[8]; 2 h
  tissue biodistribution Bladder: 3.39 ± 2.78 percent injected dose per gram
  tissue biodistribution Blood: 0.68 ± 0.25 percent injected dose per gram
  tissue biodistribution Fat: 0.35 ± 0.10 percent injected dose per gram
  tissue biodistribution Heart: 0.28 ± 0.08 percent injected dose per gram
  tissue biodistribution Kidney: 87.10 ± 25.99 percent injected dose per gram
  tissue biodistribution Liver: 0.39 ± 0.13 percent injected dose per gram
  tissue biodistribution Lung: 1.12 ± 0.33 percent injected dose per gram
  tissue biodistribution Muscle: 0.68 ± 0.98 percent injected dose per gram
  tissue biodistribution PC-3 Flu: 0.39 ± 0.03 percent injected dose per gram
  tissue biodistribution PC-3 PIP: 55.04 ± 7.23 percent injected dose per gram
  tissue biodistribution Pancreas: 0.28 ± 0.09 percent injected dose per gram
  tissue biodistribution Salivary gland (Sal. Gl): 1.09 ± 0.08 percent injected dose per gram
  tissue biodistribution Sm. Int.: 0.51 ± 0.32 percent injected dose per gram
  tissue biodistribution Spleen: 3.76 ± 0.70 percent injected dose per gram
  tissue biodistribution Stomach: 0.87 ± 0.63 percent injected dose per gram
[8]; 24 h
  tissue biodistribution Bladder: 0.31 ± 0.13 percent injected dose per gram
  tissue biodistribution Blood: 0.01 ± 0.01 percent injected dose per gram
  tissue biodistribution Fat: 0.08 ± 0.15 percent injected dose per gram
  tissue biodistribution Heart: 0.02 ± 0.05 percent injected dose per gram
  tissue biodistribution Kidney: 1.65 ± 0.30 percent injected dose per gram
  tissue biodistribution Liver: 0.11 ± 0.01 percent injected dose per gram
  tissue biodistribution Lung: 0.06 ± 0.01 percent injected dose per gram
  tissue biodistribution Muscle: 0.01 ± 0.00 percent injected dose per gram
  tissue biodistribution PC-3 Flu: 0.10 ± 0.02 percent injected dose per gram
  tissue biodistribution PC-3 PIP: 40.61 ± 7.00 percent injected dose per gram
  tissue biodistribution Pancreas: 0.02 ± 0.00 percent injected dose per gram
  tissue biodistribution Salivary gland (Sal. Gl): 0.09 ± 0.02 percent injected dose per gram
  tissue biodistribution Sm. Int.: 0.03 ± 0.01 percent injected dose per gram
  tissue biodistribution Spleen: 0.15 ± 0.05 percent injected dose per gram
  tissue biodistribution Stomach: 0.04 ± 0.01 percent injected dose per gram
[8]; 48 h
  tissue biodistribution Bladder: 0.12 ± 0.07 percent injected dose per gram
  tissue biodistribution Blood: 0.00 ± 0.01 percent injected dose per gram
  tissue biodistribution Fat: 0.01 ± 0.01 percent injected dose per gram
  tissue biodistribution Heart: 0.01 ± 0.00 percent injected dose per gram
  tissue biodistribution Kidney: 1.02 ± 0.58 percent injected dose per gram
  tissue biodistribution Liver: 0.09 ± 0.02 percent injected dose per gram
  tissue biodistribution Lung: 0.04 ± 0.01 percent injected dose per gram
  tissue biodistribution Muscle: 0.00 ± 0.00 percent injected dose per gram
  tissue biodistribution PC-3 Flu: 0.05 ± 0.01 percent injected dose per gram
  tissue biodistribution PC-3 PIP: 27.00 ± 7.03 percent injected dose per gram
  tissue biodistribution Pancreas: 0.01 ± 0.01 percent injected dose per gram
  tissue biodistribution Salivary gland (Sal. Gl): 0.05 ± 0.03 percent injected dose per gram
  tissue biodistribution Sm. Int.: 0.02 ± 0.00 percent injected dose per gram
  tissue biodistribution Spleen: 0.08 ± 0.03 percent injected dose per gram
  tissue biodistribution Stomach: 0.05 ± 0.04 percent injected dose per gram
[8]; 72 h
  tissue biodistribution Bladder: 0.06 ± 0.03 percent injected dose per gram
  tissue biodistribution Blood: 0.00 ± 0.04 percent injected dose per gram
  tissue biodistribution Fat: 0.06 ± 0.07 percent injected dose per gram
  tissue biodistribution Heart: 0.01 ± 0.00 percent injected dose per gram
  tissue biodistribution Kidney: 0.62 ± 0.04 percent injected dose per gram
  tissue biodistribution Liver: 0.07 ± 0.00 percent injected dose per gram
  tissue biodistribution Lung: 0.04 ± 0.02 percent injected dose per gram
  tissue biodistribution Muscle: 0.02 ± 0.02 percent injected dose per gram
  tissue biodistribution PC-3 Flu: 0.06 ± 0.01 percent injected dose per gram
  tissue biodistribution PC-3 PIP: 24.90 ± 2.27 percent injected dose per gram
  tissue biodistribution Pancreas: 0.01 ± 0.00 percent injected dose per gram
  tissue biodistribution Salivary gland (Sal. Gl): 0.05 ± 0.02 percent injected dose per gram
  tissue biodistribution Sm. Int.: 0.02 ± 0.01 percent injected dose per gram
  tissue biodistribution Spleen: 0.08 ± 0.02 percent injected dose per gram
  tissue biodistribution Stomach: 0.04 ± 0.00 percent injected dose per gram
[8]; mouse, in vivo
  uptake in PSMA+ PC3 PIP tumor (in words): higher uptake and retention in PSMA+ PC3 PIP tumor uptake than ^177Lu-2

## O=C([O-])CN1CCN(CC(=O)[O-])CCN(CC(=O)NCCCCC(=O)N(CCCC[C@H](NC(=O)N[C@@H](CCC(=O)O)C(=O)O)C(=O)O)Cc2ccc(Br)cc2)CCN(CC(=O)[O-])CC1.[177Lu+3] [^177Lu-2]
[3]
  Cell uptake PSMA + PC3 PIP: 40.6 percent incubated dose per one million cells
  uptake in PSMA+ PC3 cells (in words): higher uptake in PSMA+ PC3 cells compared to ^177Lu-3
[4]
  Cell uptake PSMA − PC3 flu: 0.12 percent incubated dose per one million cells

## O=C([O-])CN1CCN(CC(=O)[O-])CCN(CC(=O)O)C(Cc2ccc(NC(=S)NCCCCC(=O)NCCCC[C@H](NC(=O)N[C@@H](CCC(=O)O)C(=O)O)C(=O)O)cc2)CN(CC(=O)[O-])CC1.[177Lu+3] (stereo partly drawn) [^177Lu-3]
[3]
  Cell surface: 12.50 percent incubated dose per one million cells
  Cell uptake PSMA + PC3 PIP: 24.50 percent incubated dose per one million cells
  Internalization (cell lysate): 8.75 percent incubated dose per one million cells
[4]
  Cell uptake PSMA − PC3 flu: 0.05 percent incubated dose per one million cells
